# Experimental data: publication PMC8102459, “3,3′-Thiodipropionic acid (TDP), a possible precursor for the synthesis of polythioesters: identification of TDP transport proteins in Variovorax paradoxus TBEA6” (Applied Microbiology and Biotechnology, 2021)
# Legend:
# Assay in all cases: thermal shift assay, SYPRO Orange, real-time PCR
# Type in all cases: binding
# [1] = target: T1, TctC protein with locus tag VPARA-01760 (Variovorax paradoxus, UniProt A0A0H2MDR2); details: 1 μM protein, sodium phosphate pH 7.4, 0.1 to 3000 μM ligand
# T1 construct: gene VPARA_01760; His-tagged (pET19b or pET23a)
# T1 sequence (A0A0H2MDR2 1-326 limits assumed): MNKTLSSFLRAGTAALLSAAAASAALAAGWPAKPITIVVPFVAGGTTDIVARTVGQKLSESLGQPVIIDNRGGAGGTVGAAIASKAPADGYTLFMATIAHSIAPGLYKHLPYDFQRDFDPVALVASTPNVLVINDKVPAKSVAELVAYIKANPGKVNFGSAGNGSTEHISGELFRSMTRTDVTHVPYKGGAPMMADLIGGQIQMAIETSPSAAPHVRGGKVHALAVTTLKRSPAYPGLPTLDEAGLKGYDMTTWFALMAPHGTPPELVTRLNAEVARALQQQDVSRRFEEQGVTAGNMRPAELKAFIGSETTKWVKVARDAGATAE
# [2] = target: T2, TctC-44430 (TctC, locus tag VPARA-44430) (Variovorax paradoxus, UniProt A0A0H2LXQ8); details: 1 μM protein, sodium phosphate pH 7.4; value is the melting temperature, not the shift; control Tm not given
# T2 construct: gene VPARA_44430; His-tagged (pET19b N-terminal; pET23a C-terminal also made), E. coli BL21
# T2 sequence (A0A0H2LXQ8 1-329 limits assumed): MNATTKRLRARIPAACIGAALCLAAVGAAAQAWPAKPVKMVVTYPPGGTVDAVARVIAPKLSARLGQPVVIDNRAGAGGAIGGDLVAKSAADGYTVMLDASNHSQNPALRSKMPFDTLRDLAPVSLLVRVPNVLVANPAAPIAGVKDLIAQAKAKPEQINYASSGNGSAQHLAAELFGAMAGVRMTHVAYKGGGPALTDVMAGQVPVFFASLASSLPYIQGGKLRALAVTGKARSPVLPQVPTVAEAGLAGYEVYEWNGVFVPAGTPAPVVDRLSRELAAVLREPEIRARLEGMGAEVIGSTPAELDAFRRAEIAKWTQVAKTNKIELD
# [3] = target: T2, TctC-44430 (TctC, locus tag VPARA-44430); details: 1 μM protein, sodium phosphate pH 7.4; value is the melting temperature, not the shift; control Tm not given; remark: listed apart in the source
Tm at 3000 μM gluconate [2] [°C],Tm at 3000 μM TDP [3] [°C],SMILES,Tm shift [1]
83,–,O=C(O)[C@H](O)[C@@H](O)[C@H](O)[C@H](O)CO [gluconate],VPARA-01760 also showed temperature shifts with TDP or gluconate
–,56,"O=C(O)CCSCCC(=O)O [TDP, 3,3′-Thiodipropionic acid]",VPARA-01760 also showed temperature shifts with TDP or gluconate
